According to publication PMC5740381 (Antimicrobial Agents and Chemotherapy, 2017):
Read-outs that look alike come from different tables or passages of the source.

Legend:
[1] = tested on: HCV subgenomic stable replicon GT2b; assay: Stable HCV replicon luciferase assay in Huh-7 cells; type: cell-based; details: Hepatitis C virus, 0% human plasma, read-out: Mean EC50 ± SD
Source text: (§1) Five of these nine cell lines have been described previously, including those transfected with genotypes 1a H77, 1b Con1, 3a, 4a, and 6a ([28]). […] The genotype 2b and 6e NS3 sequences were each synthetically constructed based on a consensus sequence derived from the alignment of 15 genotype 2b and 4 genotype 6e sequences, respectively. All replicon constructs were bicistronic subgenomic replicons similar to those described by Bartenschlager and coworkers, and the replicon cell lines were generated by introducing these constructs into cells of an Huh-7 human hepatoma-derived cell line ([50]). The inhibitory effect of the PIs on HCV replication in replicon cells was determined in Dulbecco's modified Eagle medium containing 5% fetal bovine serum with or without 40% human plasma (Bioreclamation, Westbury, NY). The EC50s were determined using nonlinear regression curve fitting as described previously ([33]).

[2] = tested on: HCV subgenomic stable replicon GT4a; assay: as above; type: cell-based, Hepatitis C virus; details: read-out: Mean EC50 ± SD
Source text: (§2) . Five of these nine cell lines have been described previously, including those transfected with genotypes 1a H77, 1b Con1, 3a, 4a, and 6a ([28]). The other four cell lines were established by transfecting cells with a nonchimeric genotype 2a JFH-1 replicon (GenBank accession number AB047639), two genotype 2a JFH-1 chimeric replicons containing either a genotype 2b NS3 protease domain (N-terminal 251 amino acids) or a sequence encoding full-length NS3 through the first 39 amino acids of NS5B from genotype 5a (strain SA13), and one chimeric replicon with a genotype 1b Con1 backbone containing full-length NS3 and NS4A sequences from genotype 6e. The genotype 2b and 6e NS3 sequences were each synthetically constructed based on a consensus sequence derived from the alignment of 15 genotype 2b and 4 genotype 6e sequences, respectively. All replicon constructs were bicistronic subgenomic replicons similar to those described by Bartenschlager and coworkers, and the replicon cell lines were generated by introducing these constructs into cells of an Huh-7 human hepatoma-derived cell line ([50]). The inhibitory effect of the PIs on HCV replication in replicon cells was determined in Dulbecco's modified Eagle medium containing 5% fetal bovine serum with or without 40% human plasma (Bioreclamation, Westbury, NY). The EC50s were determined using nonlinear regression curve fitting as described previously ([33]).

[3] = tested on: HCV subgenomic stable replicon GT6a; assay: as above; type: cell-based, Hepatitis C virus; details: read-out: Mean EC50 ± SD
Source text: as §2

[4] = tested on: HCV subgenomic stable replicon GT3a; assay: microbe, parasite or virus in culture; type: cell-based, Hepatitis C virus; details: read-out: Mean EC50 ± SD
Source text: as §1

HCV genotype 2b replicon = assay: Transient replicon assay with engineered substitutions; type: cell-based, Hepatitis C virus
Description: (§3) Mutagenesis was performed using a Change-IT multiple-mutation site-directed mutagenesis kit (USB, Cleveland, OH) or by cloning a synthesized DNA fragment encoding the amino acid substitution(s). The genotype 1a and 1b replicon shuttle vectors used for the introduction of the substitutions of interest in the NS3, NS5A, or NS5B gene for transient-transfection assays have been described previously ([28], [33]). The replicon shuttle vectors used for the introduction of substitutions in NS3 genes from other genotypes were similar to the stable replicon cell line constructs described above, except for the absence of the neo gene. After mutagenesis, the plasmids were linearized and RNA was transcribed and then used to transfect Huh-7 cells. Inhibition of HCV replication by the HCV inhibitors was measured by luciferase assay, as described above. Replication efficiency was calculated as a percentage of wild-type replication, as described previously ([28]).

HCV genotype 3a replicon = assay: as above; type: cell-based, Hepatitis C virus
Description: as §3

HCV genotype 4a replicon = assay: as above; type: cell-based, Hepatitis C virus
Description: as §3

HCV genotype 4d replicon = assay: as above; type: cell-based, Hepatitis C virus
Description: as §3

HCV genotype 6a replicon = assay: as above; type: cell-based, Hepatitis C virus
Description: as §3

[5] = tested on: HCV subgenomic stable replicon GT6e; assay: microbe, parasite or virus in culture; type: cell-based, Hepatitis C virus; details: 0% human plasma, read-out: Mean EC50 ± SD
Source text: as §1

HCV genotype 1a replicon = assay: Transient replicon assay with engineered substitutions; type: cell-based, Hepatitis C virus; details: read-out: Mean EC50 ± SD
Description: as §3

HCV genotype 1b replicon = assay: as above; type: cell-based, Hepatitis C virus; details: read-out: Mean EC50 ± SD
Description: as §3

HCV genotype 2a replicon = assay: as above; type: cell-based, Hepatitis C virus; details: read-out: Mean EC50 ± SD
Description: as §3

[6] = Hepatitis C virus, Huh-7, 0% human plasma

`CC(C)(C)[C@@H]1NC(=O)O[C@@H]2CCC[C@H]2OC/C=C/C(F)(F)c2nc3ccccc3nc2O[C@@H]2C[C@@H](C(=O)N[C@]3(C(=O)NS(=O)(=O)C4(C)CC4)C[C@H]3C(F)F)N(C2)C1=O` [Glecaprevir, (3aR,7S,10S,12R,21E,24aR)-7-tert-butyl-N-[(1R,2R)-2-(difluoromethyl)-1-{[(1-methylcyclopropyl)sulfonyl]carbamoyl}cyclopropyl]-20,20-difluoro-5,8-dioxo-2,3,3a,5,6,7,8,11,12,20,23,24a-dodecahydro-1H,10H-9,12-methanocyclopenta[18,19][1,10,17,3,6]trioxadiazacyclononadecino[11,12-b]quinoxaline-10-carboxamide] was tested, and the EC50 [1] was 4.6 ± 1.2 nM, the EC50 [2, 6] was 2.8 ± 0.41 nM and the EC50 [3, 6] was 0.86 ± 0.11 nM. It also gave an EC50 [4, 6] of 1.9 ± 0.62 nM, an EC50 (HCV genotype 2b replicon; Hepatitis C virus, read-out: Mean EC50 ± SD, 2b NS3 A156T) of 460 ± 172 nM and an EC50 (HCV genotype 2b replicon; Hepatitis C virus, read-out: Mean EC50 ± SD, 2b NS3 A156V) of 4510 nM. For the same compound, the EC50 (HCV genotype 2b replicon; Hepatitis C virus, read-out: Mean EC50 ± SD, 2b NS3 D168A) was 3.9 ± 1 nM, the EC50 (HCV genotype 2b replicon; Hepatitis C virus, read-out: Mean EC50 ± SD, 2b NS3 D168E) was 6.6 ± 1.8 nM and the EC50 (HCV genotype 2b replicon; Hepatitis C virus, read-out: Mean EC50 ± SD, 2b NS3 D168V) was 9.1 ± 1.2 nM. It also gave an EC50 (HCV genotype 2b replicon; Hepatitis C virus, read-out: Mean EC50 ± SD, 2b wild type, transient transfection) of 3.1 nM, an EC50 (HCV genotype 3a replicon; Hepatitis C virus, read-out: Mean EC50 ± SD, 3a NS3 A156G) of 909 ± 349 nM and an EC50 (HCV genotype 3a replicon; Hepatitis C virus, read-out: Mean EC50 ± SD, 3a NS3 Q168R) of 30 ± 10 nM. For the same compound, the EC50 (HCV genotype 3a replicon; Hepatitis C virus, read-out: Mean EC50 ± SD, 3a wild type, transient transfection) was 0.55 nM, the EC50 (HCV genotype 4a replicon; Hepatitis C virus, read-out: Mean EC50 ± SD, 4a NS3 A156T) was 962 ± 374 nM and the EC50 (HCV genotype 4a replicon; Hepatitis C virus, read-out: Mean EC50 ± SD, 4a NS3 A156V) was 2080 nM. For the same compound, the EC50 (HCV genotype 4a replicon; Hepatitis C virus, read-out: Mean EC50 ± SD, 4a NS3 D168H) was 15 ± 6.1 nM, the EC50 (HCV genotype 4a replicon; Hepatitis C virus, read-out: Mean EC50 ± SD, 4a NS3 D168V) was 6.5 ± 3 nM and the EC50 (HCV genotype 4a replicon; Hepatitis C virus, read-out: Mean EC50 ± SD, 4a NS3 R155C) was 1.7 ± 0.47 nM. It also gave an EC50 (HCV genotype 4a replicon; Hepatitis C virus, read-out: Mean EC50 ± SD, 4a wild type, transient transfection) of 0.67 nM, an EC50 (HCV genotype 4d replicon; Hepatitis C virus, 96 h, read-out: Mean EC50 ± SD, 4d wild type, transient transfection) of 0.15 ± 0.04 nM and an EC50 (HCV genotype 6a replicon; Hepatitis C virus, read-out: Mean EC50 ± SD, 6a NS3 D168A) of 12 ± 5.8 nM. The EC50 (HCV genotype 6a replicon; Hepatitis C virus, read-out: Mean EC50 ± SD, 6a NS3 D168H) was 22 ± 5.7 nM, the EC50 (HCV genotype 6a replicon; Hepatitis C virus, read-out: Mean EC50 ± SD, 6a NS3 D168V) was 5.8 ± 2.2 nM and the EC50 (HCV genotype 6a replicon; Hepatitis C virus, read-out: Mean EC50 ± SD, 6a wild type, transient transfection) was 0.15 nM.

For `C=C[C@@H]1C[C@]1(NC(=O)[C@@H]1C[C@@H]2CN1C(=O)[C@H](C(C)(C)C)NC(=O)O[C@@H]1C[C@H]1CCCCCc1nc3ccc(OC)cc3nc1O2)C(=O)NS(=O)(=O)C1CC1` [Grazoprevir], the EC50 ([2]; 0% human plasma) was 1.2 ± 0.31 nM, the EC50 ([3]; 0% human plasma) was 0.89 ± 0.32 nM and the EC50 ([4]; 0% human plasma) was 83 ± 18 nM. It also gave an EC50 [5] of 0.25 ± 0.01 nM, an EC50 (HCV genotype 1a replicon; 1a NS3 A156T) of 92 ± 6 nM and an EC50 (HCV genotype 1a replicon; 1a NS3 D168E) of 4.6 ± 0.66 nM. The EC50 (HCV genotype 1a replicon; 1a NS3 D168V) was 30 ± 13 nM, the EC50 (HCV genotype 1a replicon; 1a NS3 F43L) was 0.19 ± 0.05 nM and the EC50 (HCV genotype 1a replicon; 1a NS3 Q80K) was 0.25 ± 0.09 nM. The EC50 (HCV genotype 1a replicon; 1a NS3 R155K) was 0.59 ± 0.19 nM, the EC50 (HCV genotype 1a replicon; 1a NS3 V36M) was 0.27 ± 0.06 nM and the EC50 (HCV genotype 1a replicon; 1a NS3 V55I) was 0.1 ± 0.02 nM. It also gave an EC50 (HCV genotype 1a replicon; 1a NS3 Y56H) of 2.2 ± 0.73 nM, an EC50 (HCV genotype 1a replicon; 1a wild type, transient transfection) of 0.14 ± 0.06 nM and an EC50 (HCV genotype 1b replicon; 1b NS3 A156T) of 39 ± 4.3 nM. The EC50 (HCV genotype 1b replicon; 1b NS3 A156V) was 68 ± 8.2 nM, the EC50 (HCV genotype 1b replicon; 1b NS3 D168A) was 8.5 ± 0.37 nM and the EC50 (HCV genotype 1b replicon; 1b NS3 D168E) was 0.78 ± 0.05 nM. It also gave an EC50 (HCV genotype 1b replicon; 1b NS3 D168V) of 4.1 ± 0.11 nM, an EC50 (HCV genotype 1b replicon; 1b wild type, transient transfection) of 0.19 ± 0.05 nM and an EC50 (HCV genotype 2a replicon; 2a NS3 A156T) of 1150 nM. For the same compound, the EC50 (HCV genotype 2a replicon; 2a NS3 A156V) was 1960 nM, the EC50 (HCV genotype 2a replicon; 2a NS3 D168A) was 139 ± 9.4 nM and the EC50 (HCV genotype 2a replicon; 2a NS3 D168E) was 62 ± 10 nM. For the same compound, the EC50 (HCV genotype 2a replicon; 2a NS3 D168V) was 24 ± 0.94 nM, the EC50 (HCV genotype 2a replicon; 2a wild type, transient transfection) was 10.5 ± 1.4 nM and the EC50 (HCV genotype 2b replicon; 2b NS3 A156T, read-out: Mean EC50 ± SD) was 1560 nM. The EC50 (HCV genotype 2b replicon; 2b NS3 A156V, read-out: Mean EC50 ± SD) was 2890 nM, the EC50 (HCV genotype 2b replicon; 2b NS3 D168A, read-out: Mean EC50 ± SD) was 347 ± 113 nM and the EC50 (HCV genotype 2b replicon; 2b NS3 D168E, read-out: Mean EC50 ± SD) was 35 ± 6 nM. It also gave an EC50 (HCV genotype 2b replicon; 2b NS3 D168V, read-out: Mean EC50 ± SD) of 88 ± 19 nM, an EC50 (HCV genotype 2b replicon; 2b wild type, transient transfection, read-out: Mean EC50 ± SD) of 6.1 ± 1.3 nM and an EC50 (HCV genotype 3a replicon; 3a NS3 A156G, read-out: Mean EC50 ± SD) of 614 ± 148 nM. It also gave an EC50 (HCV genotype 3a replicon; 3a NS3 Q168R, read-out: Mean EC50 ± SD) of 165 ± 46 nM, an EC50 (HCV genotype 3a replicon; 3a wild type, transient transfection, read-out: Mean EC50 ± SD) of 47 ± 14 nM and an EC50 (HCV genotype 4a replicon; 4a NS3 A156T, read-out: Mean EC50 ± SD) of 296 ± 22 nM. For the same compound, the EC50 (HCV genotype 4a replicon; 4a NS3 A156V, read-out: Mean EC50 ± SD) was 169 ± 27 nM, the EC50 (HCV genotype 4a replicon; 4a NS3 D168H, read-out: Mean EC50 ± SD) was 25 ± 6.3 nM and the EC50 (HCV genotype 4a replicon; 4a NS3 D168V, read-out: Mean EC50 ± SD) was 13 ± 1.1 nM. The EC50 (HCV genotype 4a replicon; 4a NS3 R155C, read-out: Mean EC50 ± SD) was 2 ± 0.27 nM, the EC50 (HCV genotype 4a replicon; 4a wild type, transient transfection, read-out: Mean EC50 ± SD) was 0.28 ± 0.04 nM and the EC50 (HCV genotype 4d replicon; 4d NS3 D168V, read-out: Mean EC50 ± SD) was 2.5 ± 0.08 nM. For the same compound, the EC50 (HCV genotype 4d replicon; 4d wild type, transient transfection, read-out: Mean EC50 ± SD) was 0.18 ± 0.01 nM, the EC50 (HCV genotype 6a replicon; 6a NS3 D168A, read-out: Mean EC50 ± SD) was 103 ± 34 nM and the EC50 (HCV genotype 6a replicon; 6a NS3 D168H, read-out: Mean EC50 ± SD) was 45 ± 4.1 nM. For the same compound, the EC50 (HCV genotype 6a replicon; 6a NS3 D168V, read-out: Mean EC50 ± SD) was 24 ± 1.2 nM and the EC50 (HCV genotype 6a replicon; 6a wild type, transient transfection, read-out: Mean EC50 ± SD) was 0.1 ± 0.02 nM.
